We go through 5 compounds from patent US20220389515A1, “USE OF BIOMARKERS TO PREDICT CLINICAL SENSITIVITY TO 2-(4-CHLOROPHENYL)-N-((2-(2,6-DIOXOPIPERIDIN-3-YL)-1-OXOISOINDOLIN-5-YL)METHYL)-2,2-DIFLUOROACETAMIDE” (priority 2019, published 2022).

For series [1] the following is noted: relative humidity increased from about 0% to about 90% RH; cited from earlier work.
The target of series [2] is T1, GSPT1 (Homo sapiens, UniProt P15170).
T1 construct: endogenous in cells; host or cells: KG-1 (TMT proteomics); KG1, U937 / U937-Cas9, MOLM-13, OCI-AML2 (immunoblots)
In words: Immunoblot analysis of Compound D-induced GSPT1 degradation in AML cells. It counts as cell-based. As to conditions: U937 parental, TSC1-/- and TSC2-/- cells. Here is the method:
FIG. 2A illustrates the volcano plot of differentially abundant proteins in response to Compound D treatment relative to the DMSO control. KG1 cells were treated with DMSO or 100 nM Compound D for 4 hours and subjected to TMT proteomics analysis. The X-axis denotes the log 2-fold change of Compound D versus the DMSO control for each protein. P-values were corrected for multiple hypothesis testing using the Benjamini-Hoschberg method to arrive at an adjusted-P-value (adj-P, also known as a false discovery rate). The y-axis denotes the −log 10 (adj-P) values indicating statistical significance such that proteins lying above the dotted red line are statistically significant findings with adjusted P-values<0.05. FIG. 2B illustrates the immunoblot analysis of KG1 and U937 cells treated with DMSO or Compound D for 4 hours. Where indicated, cells were pretreated with Bortezomib or MLN4924 for 30 minutes. FIGS. 2C and 2D illustrate the immunoblot analysis (FIG. 2C) and cell proliferation (FIG. 2D) of U937-Cas9 parental cells or cells stably transduced with lentiviral vectors expressing a non-targeting sgRNA (sgNT-1), a sgRNA targeting a non-coding region (sgNC-8), or a sgRNA targeting CRBN(sgCRBN-8). Cells were treated with DMSO or Compound D at indicated concentrations. FIGS. 2E and 2F illustrate the immunoblot analysis (left panel) and cell proliferation (right panel) of MOLM-13 (FIG. 2E) and OCI-AML2 (FIG. 2F) parental and CRBN−/− cells. Cells were treated with DMSO or Compound D at indicated concentrations. Results shown in all figure panels are representative of three biological replicates. Data in FIGS. 2D, 2E (right panel), and 2F (right panel) are shown as mean±SD, n=3 technical replicates.
FIG. 3A illustrates FLAG-HA tagged cereblon wild-type (FLAG-HA-CRBN) or Y384A/W386A mutant (FLAG-HA-YWAA) produced in 293FT CRBN−/− cells was used to capture V5 tagged GSPT1 (GSPT1-V5) and V5 tagged IKZF1 (IKZF1-V5) transiently expressed in 293FT CRBN−/− cells. […] FIG. 3B illustrates the surface representation of GSPT1 in complex with cereblon, DDB1 and Compound D, with DDB1 shown in purple, cereblon in blue, and GSPT1 in orange. The position of Compound D is shown with a white arrow. FIG. 3C illustrates the Fo-Fc omit electron density (green mesh) for Compound D (yellow sticks) contoured at 3.06. FIG. 3D illustrates GSPT1's interaction with cereblon is mediated by a β-hairpin loop. Hydrogen bond interactions between cereblon and the GPST1 β-hairpin are shown as yellow dashes. FIG. 3E illustrates details of the binding interface between cereblon and GSPT1. Compound D is represented as yellow sticks. Predicted polar interactions between Compound D and cereblon are shown as yellow dashes. FIG. 3F illustrates the immunoblot analysis of U937 parental cells or cells stably expressing HA-GSPT1-G575N. Cells were treated with DMSO or Compound D at the indicated concentrations. FIGS. 3G and 311 illustrate the immunoblot analysis (left panel) and cell proliferation (right panel) of MOLM-13 (FIG. 3G) and OCI-AML2 (FIG. 311) parental cells and cells stably expressing HA tagged GSPT1-G575N. Cells were treated with DMSO or Compound D at indicated concentrations.
Like all other cereblon modulators, Compound D contains a glutarimide ring (FIG. 1A) that can bind cereblon and redirect it to target neosubstrates for degradation. Thus, the effect of Compound D on the global proteome in AML cell line KG-1 was assessed using tandem mass tag (TMT) quantitative mass spectrometry.
Specifically, U937 cells stably expressing Cas9 were infected with lentiviral vectors constitutively expressing RFP and non-targeting or non-coding sgRNA (sgNT) controls, or sgRNAs targeting TSC1 or TSC2. Infected cells were selected with 1 μg/ml puromycin. […]

In series [3] the target is Ikaros (Homo sapiens, UniProt Q13422+Q96SW2). The note with it: U937-Cas9; 18 hours. On the procedure:
Cells were treated with DMSO or Compound D in the presence of cycloheximide. FIGS. 8D and 8E show the immunoblot analysis of U937-Cas9 cells stably expressing HA-tagged GSPT1 and the indicated sgRNAs. Cells were treated with DMSO, Compound D (FIG. 8D) or pomalidomide (POM; FIG. 8E) at the indicated concentrations for 18 hours.
To understand whether the effect of mTOR activation on Compound D-induced GSPT1 degradation can be ascribed to an increased rate of GSPT1 protein synthesis and/or a decreased rate of GSPT1 degradation, the change of GSPT1 protein half-life in response to TSC1 or TSC2 loss in the presence or absence of Compound D was determined.

SMILES strings stand for the structures.

T1 sequence (P15170 1-637 isoform P15170-3): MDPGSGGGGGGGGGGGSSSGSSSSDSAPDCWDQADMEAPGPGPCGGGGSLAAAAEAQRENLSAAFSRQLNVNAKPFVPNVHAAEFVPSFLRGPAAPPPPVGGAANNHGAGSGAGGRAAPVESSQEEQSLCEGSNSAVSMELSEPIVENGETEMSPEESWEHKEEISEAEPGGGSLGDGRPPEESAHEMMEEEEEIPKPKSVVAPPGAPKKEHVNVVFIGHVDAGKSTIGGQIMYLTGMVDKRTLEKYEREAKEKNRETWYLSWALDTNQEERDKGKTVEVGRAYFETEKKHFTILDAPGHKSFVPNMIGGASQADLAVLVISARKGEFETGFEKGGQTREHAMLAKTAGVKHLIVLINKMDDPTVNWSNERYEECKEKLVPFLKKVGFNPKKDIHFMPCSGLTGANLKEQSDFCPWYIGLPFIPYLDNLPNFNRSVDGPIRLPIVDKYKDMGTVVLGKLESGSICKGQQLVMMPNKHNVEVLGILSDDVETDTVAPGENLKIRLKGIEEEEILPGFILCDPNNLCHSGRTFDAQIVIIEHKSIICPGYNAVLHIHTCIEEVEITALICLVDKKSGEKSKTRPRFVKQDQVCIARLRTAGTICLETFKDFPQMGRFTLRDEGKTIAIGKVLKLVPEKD
T1 sequence (Q96SW2 whole entry partner): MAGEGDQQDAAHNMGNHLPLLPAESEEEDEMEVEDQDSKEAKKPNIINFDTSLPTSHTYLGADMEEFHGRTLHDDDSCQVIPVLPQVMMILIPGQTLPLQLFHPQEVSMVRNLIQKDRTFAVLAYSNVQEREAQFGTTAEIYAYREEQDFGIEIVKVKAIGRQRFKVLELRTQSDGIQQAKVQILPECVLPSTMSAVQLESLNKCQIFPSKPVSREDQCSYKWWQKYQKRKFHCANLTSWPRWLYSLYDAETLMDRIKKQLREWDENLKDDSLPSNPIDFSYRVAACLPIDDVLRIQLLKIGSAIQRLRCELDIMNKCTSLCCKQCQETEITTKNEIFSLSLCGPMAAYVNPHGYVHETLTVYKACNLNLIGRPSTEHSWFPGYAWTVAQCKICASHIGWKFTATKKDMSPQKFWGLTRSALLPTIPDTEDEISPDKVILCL
T1 sequence (Q16531 2-1140 partner): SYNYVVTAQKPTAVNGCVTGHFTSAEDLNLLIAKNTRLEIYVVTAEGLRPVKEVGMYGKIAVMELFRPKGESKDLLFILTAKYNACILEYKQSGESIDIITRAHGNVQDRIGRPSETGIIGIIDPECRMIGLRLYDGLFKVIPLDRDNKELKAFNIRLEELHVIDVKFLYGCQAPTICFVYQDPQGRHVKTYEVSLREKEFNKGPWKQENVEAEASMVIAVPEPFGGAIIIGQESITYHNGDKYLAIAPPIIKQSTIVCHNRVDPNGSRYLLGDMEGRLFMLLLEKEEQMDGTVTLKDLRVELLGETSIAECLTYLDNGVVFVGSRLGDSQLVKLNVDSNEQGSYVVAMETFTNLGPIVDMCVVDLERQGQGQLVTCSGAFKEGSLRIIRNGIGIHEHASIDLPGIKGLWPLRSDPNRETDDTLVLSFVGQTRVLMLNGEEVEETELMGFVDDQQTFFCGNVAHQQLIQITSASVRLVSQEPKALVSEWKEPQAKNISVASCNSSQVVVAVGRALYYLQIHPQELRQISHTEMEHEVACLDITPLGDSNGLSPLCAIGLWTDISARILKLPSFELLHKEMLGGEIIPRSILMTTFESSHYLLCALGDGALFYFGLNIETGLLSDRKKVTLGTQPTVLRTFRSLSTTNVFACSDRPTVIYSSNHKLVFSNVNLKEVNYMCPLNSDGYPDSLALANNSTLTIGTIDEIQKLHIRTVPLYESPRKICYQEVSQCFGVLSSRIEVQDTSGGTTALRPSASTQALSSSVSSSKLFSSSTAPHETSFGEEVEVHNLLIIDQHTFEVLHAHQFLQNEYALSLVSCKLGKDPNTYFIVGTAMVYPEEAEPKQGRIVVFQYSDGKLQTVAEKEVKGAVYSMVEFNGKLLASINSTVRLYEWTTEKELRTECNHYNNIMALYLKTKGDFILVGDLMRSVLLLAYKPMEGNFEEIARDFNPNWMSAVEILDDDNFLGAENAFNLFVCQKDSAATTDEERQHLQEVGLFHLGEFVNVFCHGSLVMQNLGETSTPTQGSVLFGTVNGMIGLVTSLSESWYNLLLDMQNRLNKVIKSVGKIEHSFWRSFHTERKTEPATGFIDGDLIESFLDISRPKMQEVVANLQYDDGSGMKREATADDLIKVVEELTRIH
Sequence of Ikaros (Q96SW2 whole entry): as the sequence (Q96SW2 whole entry partner) above
Sequence of Ikaros (Q13422 whole entry): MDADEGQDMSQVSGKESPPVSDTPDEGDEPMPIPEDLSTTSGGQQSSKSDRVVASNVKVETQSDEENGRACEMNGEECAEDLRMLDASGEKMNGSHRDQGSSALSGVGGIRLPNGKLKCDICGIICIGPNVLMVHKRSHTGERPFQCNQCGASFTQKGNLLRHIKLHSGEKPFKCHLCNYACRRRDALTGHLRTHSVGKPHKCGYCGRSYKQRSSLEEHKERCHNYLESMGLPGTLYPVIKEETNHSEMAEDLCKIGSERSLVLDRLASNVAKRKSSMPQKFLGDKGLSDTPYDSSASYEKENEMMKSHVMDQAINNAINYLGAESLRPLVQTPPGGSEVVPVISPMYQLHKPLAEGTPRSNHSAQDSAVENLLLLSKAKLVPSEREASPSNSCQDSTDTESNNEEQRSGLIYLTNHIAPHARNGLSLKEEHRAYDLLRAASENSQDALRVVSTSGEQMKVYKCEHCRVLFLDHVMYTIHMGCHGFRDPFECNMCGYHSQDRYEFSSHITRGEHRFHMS
Sequence of Ikaros (Q16531 whole entry, further chain): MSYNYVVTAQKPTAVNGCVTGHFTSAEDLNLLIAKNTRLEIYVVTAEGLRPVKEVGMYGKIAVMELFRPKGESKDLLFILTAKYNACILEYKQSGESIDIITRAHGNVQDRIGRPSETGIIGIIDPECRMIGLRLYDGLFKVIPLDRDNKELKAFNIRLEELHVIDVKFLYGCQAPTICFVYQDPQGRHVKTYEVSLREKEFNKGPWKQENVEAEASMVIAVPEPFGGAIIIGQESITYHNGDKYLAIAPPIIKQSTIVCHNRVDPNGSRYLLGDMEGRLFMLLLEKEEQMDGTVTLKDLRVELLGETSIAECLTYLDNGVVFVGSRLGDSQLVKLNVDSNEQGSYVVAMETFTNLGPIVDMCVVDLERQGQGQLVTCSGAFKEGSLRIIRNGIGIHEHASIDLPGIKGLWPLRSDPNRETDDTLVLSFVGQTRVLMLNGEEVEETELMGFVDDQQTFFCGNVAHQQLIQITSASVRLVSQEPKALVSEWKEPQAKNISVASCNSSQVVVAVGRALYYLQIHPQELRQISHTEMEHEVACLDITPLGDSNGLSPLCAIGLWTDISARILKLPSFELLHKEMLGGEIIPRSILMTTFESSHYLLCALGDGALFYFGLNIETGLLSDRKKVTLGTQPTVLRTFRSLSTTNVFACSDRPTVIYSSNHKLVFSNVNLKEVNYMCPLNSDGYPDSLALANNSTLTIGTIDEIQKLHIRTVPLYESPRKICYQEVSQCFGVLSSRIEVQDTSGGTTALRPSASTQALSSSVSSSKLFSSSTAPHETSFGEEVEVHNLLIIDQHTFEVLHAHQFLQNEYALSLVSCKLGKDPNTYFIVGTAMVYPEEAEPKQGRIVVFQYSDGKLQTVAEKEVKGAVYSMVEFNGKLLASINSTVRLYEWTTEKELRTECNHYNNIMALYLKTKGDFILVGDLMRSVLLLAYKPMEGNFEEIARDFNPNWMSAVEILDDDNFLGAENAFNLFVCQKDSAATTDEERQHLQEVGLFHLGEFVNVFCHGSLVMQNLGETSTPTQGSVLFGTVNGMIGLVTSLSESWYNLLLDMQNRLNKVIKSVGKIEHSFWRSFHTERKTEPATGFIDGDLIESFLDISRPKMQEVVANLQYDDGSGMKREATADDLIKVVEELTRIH

Turning to `O=C1CCC(N2Cc3cc(CNC(=O)C(F)(F)c4ccc(Cl)cc4)ccc3C2=O)C(=O)N1` (centres unmarked) [Form A, 2-(4-chlorophenyl)-N-((2-(2,6-dioxopiperidin-3-yl)-1-oxoisoindolin-5-yl)methyl)-2,2-difluoroacetamide], in series [1], the water uptake entry is recorded as “about 1.2 % w/w”. As to `O=C1CCC(N2Cc3cc(CNC(=O)C(F)(F)c4ccc(Cl)cc4)ccc3C2=O)C(=O)N1` (centres unmarked) [Form B, 2-(4-chlorophenyl)-N-((2-(2,6-dioxopiperidin-3-yl)-1-oxoisoindolin-5-yl)methyl)-2,2-difluoroacetamide], the water uptake entry in series [1] is on record as “about 1.4 % w/w”. `O=C1CCC(N2Cc3cc(CNC(=O)C(F)(F)c4ccc(Cl)cc4)ccc3C2=O)C(=O)N1` (centres unmarked) [Form C, 2-(4-chlorophenyl)-N-((2-(2,6-dioxopiperidin-3-yl)-1-oxoisoindolin-5-yl)methyl)-2,2-difluoroacetamide]: the water uptake result in series [1] is recorded as “about 0.6 % w/w”. For `C[C@@H]1C[C@@H]([C@H](O)CC2CC(=O)NC(=O)C2)C(=O)[C@@H](C)C1` [cycloheximide, reference compound], in series [2], the “protein level of GSPT1, cycloheximide treatment alone” value is recorded as “did not show much effect on the protein level of GSPT1”.

As for `Nc1cccc2c1C(=O)N(C1CCC(=O)NC1=O)C2=O` (centres unmarked) [pomalidomide], the “degradation of Ikaros under TSC1 or TSC2 deficiency” value in series [3] is “did not affect the degradation of Ikaros by pomalidomide”.
